As a reminder, the IC50 is the concentration at which inhibition is half-maximal. A higher IC50 goes with lower potency.

One data set concerns MOSEC IDB cells. Put plainly: Ovarian tumor orthotopic animal model. In kind it is in vivo, mice. As to conditions: 30 mg/Kg i.p. 5 days per week during 2 weeks. Here is the method:
Experiments were performed using MOSEC IDB cells (mouse ovarian surface epithelial cells) with cloned luciferase reporter and cells implanted on mice ovarian region (Yu-Hung Huang et al, Claudin-3 gene silencing with siRNA suppresses ovarian tumor growth and metastasis. 3426-3430 PNAS 2009. vol. 106, no. 9).
FIG. 6A represents a Pet picture of luciferase activity in vivo tumor (Compound 3 treated mice: 30 mg/Kg i.p. 5 days per week during 2 weeks).

Data set [1] deals with HL-60 (acute myeloid leukaemia). Put plainly: Apoptosis, sub-G1 peak by flow cytometry. Format: cell-based, human. As to conditions: 10 μM, 24 h. Here is the method:
(§1) Incubation of Compound 3 with different human hematological cancer cell lines, including CLL, MM, acute T-cell and acute myeloid leukaemia cell lines, induced apoptosis, as assessed by the appearance of cells with a DNA content less than G1, characteristic of early apoptosis (sub-G1 peak; after 6-9 h treatment). More than 20% apoptosis was induced after 24 h treatment of 10 μM Compound 3 with EHEB (CLL), RPMI-8226 (MM), Jurkat (acute T-cell leukaemia) and HL-60 (acute myeloid leukaemia) cells.
(§2) Induction of apoptosis in EHEB cells by Compound 3 (FIG. 7A): EHEB cells were incubated for the indicated times with 10 μM Compound 3, and apoptosis was then quantitated as percentage of cells in the sub-G1 region in cell cycle analysis by flow cytometry. The position of the sub-G1 peak (hypodiploidy), integrated by apoptotic cells, as well as the G0/G1 and G2/M peaks are indicated by arrows. Untreated control cells were run in parallel. The percentage of cells with a DNA content less than G1 (sub-G1) is indicated in each histogram. The experiment shown is representative of three performed. Briefly, cells (5×10^5) were centrifuged and fixed overnight in 70% ethanol at 4° C. Cells were washed 3 times with PBS, incubated for 1 h with 1 mg/ml RNaseA and 20 μg/ml propidium iodide at room temperature, and then analyzed for cell cycle with a Becton Dickinson FACS Calibur flow cytometer (San Jose, Calif.). Quantitation of apoptotic cells was calculated as the percentage of cells in the sub-G1 region (hypodiploidy) in cell cycle analysis.
(A flow cytometer gives signals particle by particle.)

The test system of the next data set is EHEB (CLL). Put plainly: Apoptosis, sub-G1 peak by flow cytometry. Format: cell-based, human. As to conditions: 10 μM, 24 h. Here is the method: as §1, §2
In a further data set the test system is RPMI-8226 (MM). Put plainly: Apoptosis, sub-G1 peak by flow cytometry. The following applies: 10 μM, 24 h. In kind it is cell-based, human. Here is the method: as §1, §2
Data set [2] has as its system Jurkat (acute T-cell leukaemia). Put plainly: Apoptosis, sub-G1 peak by flow cytometry. In kind it is cell-based, human. The following applies: 10 μM, 24 h. Here is the method: as §1, §2
For data set [3], the system named is human patient chronic lymphocytic leukaemia cells. Put plainly: Viability of chronic lymphocytic leukaemia cells from patients. In kind it is cell-based. As to conditions: cells with different ZAP70 expression. Here is the method:
A panel of 6 human patient chronic lymphocytic leukaemia cells was chosen showing different patterns of ZAP70 expression (see cytogenetic changes notated in the table 5). Cells were incubated in the presence of compound 3. Results of this study, showing the viability are depicted in FIG. 3.

A short description of data set [4]: Cytotoxicity for human non-tumoral cells, XTT. Format: cell-based. The following applies: Fibroblasts. Here is the method: The cytotoxicity of the compounds for human non-tumoral cells was studied in fibroblasts, HUVEC cells and resting PBLs (Peripheral Blood lymphocytes).
Distinct amounts of exponentially growing cells were seeded in 96-well flat-bottomed microtiter plates in a final volume of 100 μl were seeded in 96-well flat-bottomed microtiter plates, and incubated at 37° C. in a humidified atmosphere of 5% CO2/95% air for 24 h to allow the cells attach to the plates. Then, cells were incubated with different concentrations of the assayed compound at 37° C. under the 5% CO2/95% air atmosphere for 72 h. Cell proliferation was quantified using the XTT cell proliferation kit (Roche Molecular Biochemicals, Mannheim, Germany) following the manufacturer's instructions. Briefly, a freshly prepared mixture solution (50 μl) of XTT labelling reagent and PMS (N-methyldibenzopyrazine methyl sulfate) electron coupling reagent was added to each well. The resulting mixtures were further incubated for 4 h in a humidified atmosphere (37° C., 5% CO2), and the absorbance of the formazan product generated was measured with a microtiter plate reader at a test wavelength of 490 nm and a reference wavelength of 655 nm. The IC50 (50% inhibitory concentration) was then calculated as the drug concentration causing a 50% inhibition of cell proliferation. Data are shown as mean values of four independent experiments each performed in triplicate.

Molecules are shown by their SMILES.

`Fc1ccc(CNCCCC=C(c2ccccc2)c2ccccc2)cc1` [Compound 3, (5,5-diphenyl-pent-4-enyl)-(4-fluoro-benzyl)-amine hydrocloride]: the “in vivo antitumor activity, ovarian tumor area” value with MOSEC IDB cells is “potent in vivo antitumor activity reducing the tumor area”. The apoptosis result (in data set [1]; in the data set with EHEB (CLL); in the data set on RPMI-8226 (MM); in data set [2]) was “More than 20%” each time. The “decrease of viability of patient CLL cells” value in data set [3] is given as “more significant in cell with a low expression of ZAP70”. In data set [4], this molecule yielded an IC50 at 72 h of 19 µM.

Source of the values: US20130296346A1, “DIPHENYL-AMINE DERIVATIVES: USES, PROCESS OF SYNTHESIS AND PHARMACEUTICAL COMPOSITIONS” (Faes Farma, S.A., priority 2010, published 2013).
